This passage reports IC50 results from patent publication US20090136448A1, “Antiviral 2-Carboxy-Thiophene Compounds” (priority 2005, published 2009).

The subject of experiment [1] is HCV replication, genotype 1b (Huh-7 HCV replicon cell, sub-line 5-15). Description: Replicon ELISA cell based assay, genotype 1b. To be noted: Hepatitis C virus, Huh-7 HCV replicon cells, genotype 1b (sub-line 5-15), 72 hours, mean, assayed at least twice. As for the experimental part:
(§1) Replicon ELISA Cell Based Assay
(§2) 100 μL of medium containing 10% FCS were added to each well of clear, flat-bottomed 96 well microplates, excepting wells in the top row. Test compound was diluted in assay medium to twice the final required starting concentration from a 40 mM stock solution in DMSO. 200 μL of the starting dilution were introduced into two wells each in the top row and doubling dilutions made down the plate by the sequential transfer of 100 μL aliquots with thorough mixing in the wells; the final 100 μL were discarded. The two bottom rows were not used for compound dilutions. Huh-7 HCV replicon cell monolayers nearing confluency were stripped from growth flasks with versene-trypsin solution and the cells were resuspended in assay medium at either 2×10^5 cells/mL (sub-line 5-15; genotype 1b; Lohmann, V., Korner, F., Koch, J-O., Herian, U., Thielmann, L. and Bartenschlager, R., Science, 1999, 285, 110-113) or at 3×10^5 cells/mL (genotype 1a; Gu, B., Gates, A. T., Isken, O., Behrens, S. E. and Sarisky, R. T., J. Virol., 2003, 77, 5352-5359). 100 μL of cell suspension were added to all wells and the plates incubated at 37° C. for 72 hours in a 5% CO2 atmosphere.
(§3) Following incubation, the assay medium was aspirated from the plates. The cell sheets were washed by gentle immersion in phosphate buffered saline (PBS), which was then aspirated off, and fixed with acetone:methanol (1:1) for 5 minutes. Following a further wash with PBS, 100 μL of ELISA diluent (PBS+0.05% v/v Tween 20+2% w/v skimmed milk powder) were added to all wells and the plates incubated at 37° C. for 30 minutes on an orbital platform. The diluent was removed and each well then received 50 μL of a 1/200 dilution of anti-HCV specific, murine, monoclonal antibody (either Virostat #1872 or #1877), except for wells in one of the compound-free control rows which received diluent alone to act as negative controls. The plates were incubated at 37° C. for 2 hours and washed 3 times with PBS/0.05% Tween 20, then 50 μL of horseradish peroxidase conjugated, anti-mouse, rabbit polyclonal serum (Dako #P0260), diluted 1/1000, were added to all wells. The plates were incubated for a further hour, the antibody removed and the cell sheets washed 5 times with PBS/Tween and blotted dry. The assay was developed by the addition of 50 μL of ortho-phenylenediamine/peroxidase substrate in urea/citrate buffer (SigmaFast, Sigma #P-9187) to each well, and colour allowed to develop for up to 15 minutes. The reaction was stopped by the addition of 25 μL per well of 2 M sulphuric acid and the plates were read at 490 nm on a Fluostar Optima spectrophotometer.
(§4) The substrate solution was removed and the plates were washed in tap water, blotted dry and the cells stained with 5% carbol fuchsin in water for 30 minutes. The stain was discarded and the cell sheets washed, dried and examined microscopically to assess cytotoxicity.
(§5) The absorbance values from all compound-free wells that had received both primary and secondary antibodies were averaged to obtain a positive control value. The mean absorbance value from the compound-free wells that had not received the primary antibody was used to provide the negative (background) control value. The readings from the duplicate wells at each compound concentration were averaged and, after the subtraction of the mean background from all values, were expressed as a percentage of the positive control signal. The quantifiable and specific reduction of expressed protein detected by the ELISA in the presence of a drug can be used as a measure of replicon inhibition. GraFit software (Erithacus Software Ltd.) was used to plot the curve of percentage inhibition against compound concentration and derive the 50% inhibitory concentration (IC50) for the compound.

The test system of experiment [2] is HCV replication, genotype 1a (Huh-7 HCV replicon cell). The experiment in a line: Replicon ELISA cell based assay, genotype 1a. Conditions: Hepatitis C virus, Huh-7 HCV replicon cells, 72 hours, mean, assayed at least twice. As for the experimental part:
as §1, §2, §3, §4, §5
For orientation: A replicon is a self-replicating genome or part of one, used to study replication in cells.

On to `CC(C)N(c1cc(-c2ccc(-c3cn4ccccc4n3)cc2)sc1C(=O)O)C(=O)[C@H]1CC[C@H](C(F)(F)F)CC1` [Example 14, 5-(4-Imidazo[1,2-a]pyridin-2-ylphenyl)-3-((1-methylethyl){[trans-4-(trifluoromethyl)cyclohexyl]carbonyl}amino)-2-thiophenecarboxylic acid], for which the IC50 – broadly, the point on the concentration scale where inhibition reaches its midpoint – in experiment [1] is 0.5 to 1 µM; in experiment [2], 0.1 to 0.5 µM.

For the compound `CC(C)N(c1cc(-c2ccc(-c3cc4ncccn4n3)cc2)sc1C(=O)O)C(=O)[C@H]1CC[C@H](C(F)(F)F)CC1` [Example 15, 3-((1-Methylethyl){[trans-4-(trifluoromethyl)cyclohexyl]carbonyl}-amino)-5-(4-pyrazolo[1,5-a]pyrimidin-2-ylphenyl)-2-thiophenecarboxylic acid], the IC50 in experiment [1] lay within 0.05 to 0.1 µM; in experiment [2], 0.1 to 0.5 µM.

As to `CC(C)N(c1cc(-c2ccc(-c3nc4c(N)cccc4o3)cc2)sc1C(=O)O)C(=O)[C@H]1CC[C@H](C)CC1` [Example 16, 5-[4-(4-Amino-1,3-benzoxazol-2-yl)phenyl]-3-[[(trans-4-methylcyclohexyl)carbonyl](1-methylethyl)amino]-2-thiophenecarboxylic acid], the IC50 in experiment [1] and in experiment [2] was 0.01 to 0.05 µM each time.

With `CC(C)N(c1cc(-c2ccc(-c3ccn4nccc4n3)cc2)sc1C(=O)O)C(=O)[C@H]1CC[C@H](C)CC1` [Example 17, 3-[[(trans-4-Methylcyclohexyl)carbonyl](1-methylethyl)amino]-5-(4-pyrazolo[1,5-a]pyrimidin-5-ylphenyl)-2-thiophenecarboxylic acid], the IC50 in experiment [1] and in experiment [2] was 0.1 to 0.5 µM throughout.

For the compound `CC(C)N(c1cc(-c2ccc(-c3cc4ncccc4o3)nc2)sc1C(=O)O)C(=O)[C@H]1CC[C@H](C)CC1` [Example 18, 5-(6-Furo[3,2-b]pyridin-2-yl-3-pyridinyl)-3-[[(trans-4-methylcyclohexyl)carbonyl](1-methylethyl)amino]-2-thiophenecarboxylic acid], the IC50 fell in the range of 0.01 to 0.05 µM in experiment [1] and 0.05 to 0.1 µM in experiment [2].

Regarding `CC(C)N(c1cc(-c2ccc(-c3cc4cccc(O)c4o3)cc2)sc1C(=O)O)C(=O)[C@H]1CC[C@H](C)CC1` [Example 19, 5-[4-(7-Hydroxy-1-benzofuran-2-yl)phenyl]-3-[[(trans-4-methylcyclohexyl)carbonyl](1-methylethyl)amino]-2-thiophenecarboxylic acid], the IC50 in experiment [1] and in experiment [2] was less than 0.005 µM throughout.

`CC(C)N(c1cc(-c2ccc(-c3nc4cccc(O)c4o3)cc2)sc1C(=O)O)C(=O)[C@H]1CC[C@H](C)CC1` [Example 20, 5-[4-(7-Hydroxy-1,3-benzoxazol-2-yl)phenyl]-3-[[(trans-4-methylcyclohexyl)carbonyl](1-methylethyl)amino]-2-thiophenecarboxylic acid]: the IC50 in experiment [1] was in the range of 0.01 to 0.05 µM; in experiment [2], 0.1 to 0.5 µM.

In the case of `CC(C)N(c1cc(-c2ccc(-c3cn4ccsc4n3)cc2)sc1C(=O)O)C(=O)[C@H]1CC[C@H](C(F)(F)F)CC1` [Example 21, 5-(4-Imidazo[2,1-b][1,3]thiazol-6-ylphenyl)-3-((1-methylethyl){[trans-4-(trifluoromethyl)cyclohexyl]carbonyl}amino)-2-thiophenecarboxylic acid], the values for the half-inhibitory concentration (IC50) in experiment [1] and in experiment [2] were 0.1 to 0.5 µM and 0.05 to 0.1 µM, respectively.

`CC(C)N(c1cc(-c2ccc(-c3cc4ncccc4o3)cc2)sc1C(=O)O)C(=O)[C@H]1CC[C@H](C(F)(F)F)CC1` [Example 22, 5-(4-Furo[3,2-b]pyridin-2-ylphenyl)-3-((1-methylethyl){[trans-4-(trifluoromethyl)cyclohexyl]carbonyl}amino)-2-thiophenecarboxylic acid]: the IC50 in experiment [1] and in experiment [2] was 0.05 to 0.1 µM in each case.

Take `CC(C)N(c1cc(-c2ccc(-c3nc4ccc(N)cc4o3)cc2)sc1C(=O)O)C(=O)[C@H]1CC[C@H](C)CC1` [Example 23, 5-[4-(6-Amino-1,3-benzoxazol-2-yl)phenyl]-3-[[(trans-4-methylcyclohexyl)carbonyl](1-methylethyl)amino]-2-thiophenecarboxylic acid]: the results for the IC50 in experiment [1] and in experiment [2] were 0.01 to 0.05 µM and 0.05 to 0.1 µM, respectively.

With `CC(C)N(c1cc(-c2ccc(-c3cc4cccnn4n3)cc2)sc1C(=O)O)C(=O)[C@H]1CC[C@H](C)CC1` [Example 24, 3-[[(trans-4-Methylcyclohexyl)carbonyl](1-methylethyl)amino]-5-(4-pyrazolo[1,5-b]pyridazin-2-ylphenyl)-2-thiophenecarboxylic acid], the IC50 lay in the range of 0.01 to 0.05 µM in experiment [1] and 0.1 to 0.5 µM in experiment [2].

Regarding `CC(C)N(c1cc(-c2ccc(-c3nc4ncccc4o3)cc2)sc1C(=O)O)C(=O)[C@H]1CC[C@H](C(F)(F)F)CC1` [Example 25, 3-((1-Methylethyl){[trans-4-(trifluoromethyl)cyclohexyl]carbonyl}amino)-5-(4-[1,3]oxazolo[4,5-b]pyridin-2-ylphenyl)-2-thiophenecarboxylic acid], the IC50 in experiment [1] and in experiment [2] was 0.1 to 0.5 µM each time.

`Cc1ccn2nc(-c3ccc(-c4cc(N(C(=O)[C@H]5CC[C@H](C(F)(F)F)CC5)C(C)C)c(C(=O)O)s4)cc3)cc2n1` [Example 26, 3-((1-Methylethyl){[trans-4-(trifluoromethyl)cyclohexyl]carbonyl}amino)-5-[4-(5-methylpyrazolo[1,5-a]pyrimidin-2-yl)phenyl]-2-thiophenecarboxylic acid]: the IC50 in experiment [1] was in the range of 0.5 to 1 µM; in experiment [2] it was 0.1 to 0.5 µM.

For `CC(C)N(c1cc(-c2ccc(-c3cn4cc(N)ccc4n3)cc2)sc1C(=O)O)C(=O)[C@H]1CC[C@H](C)CC1` [Example 27, 5-[4-(6-Aminoimidazo[1,2-a]pyridin-2-yl)phenyl]-3-[[(trans-4-methylcyclohexyl)carbonyl](1-methylethyl)amino]-2-thiophenecarboxylic acid], the IC50 in experiment [1] and in experiment [2] was 0.1 to 0.5 µM each time.

`CC(C)N(c1cc(-c2ccc(-c3ccc4nc[nH]c4c3)cc2)sc1C(=O)O)C(=O)[C@H]1CC[C@H](C)CC1` [Example 28, 5-[4-(1H-Benzimidazol-5-yl)phenyl]-3-[[(trans-4-methylcyclohexyl)carbonyl](1-methylethyl)amino]-2-thiophenecarboxylic acid]: the IC50 in experiment [1] and in experiment [2] was 0.1 to 0.5 µM each time.

`CC(C)N(c1cc(-c2ccc(-c3cc4cc(N)ccc4o3)cc2)sc1C(=O)O)C(=O)[C@H]1CC[C@H](C)CC1` [Example 29, 5-[4-(5-Amino-1-benzofuran-2-yl)phenyl]-3-[[(trans-4-methylcyclohexyl)carbonyl](1-methylethyl)amino]-2-thiophenecarboxylic acid]: the IC50 in experiment [1] and in experiment [2] was 0.1 to 0.5 µM in each case.

Take `CC(C)N(c1cc(-c2ccc(-c3cc4ccc(N)cc4o3)cc2)sc1C(=O)O)C(=O)[C@H]1CC[C@H](C)CC1` [Example 30, 5-[4-(6-Amino-1-benzofuran-2-yl)phenyl]-3-[[(trans-4-methylcyclohexyl)carbonyl](1-methylethyl)amino]-2-thiophenecarboxylic acid]: the IC50 in experiment [1] fell in the range of 0.5 to 1 µM; in experiment [2], 0.1 to 0.5 µM.

For the compound `CC(C)N(c1cc(-c2coc(-c3nc4ccccc4o3)c2)sc1C(=O)O)C(=O)[C@H]1CC[C@H](C)CC1` [Example 31, 5-[5-(1,3-Benzoxazol-2-yl)-3-furanyl]-3-[[(trans-4-methylcyclohexyl)carbonyl](1-methylethyl)amino]-2-thiophenecarboxylic acid], the IC50 in experiment [1] and in experiment [2] was 0.1 to 0.5 µM each time.
